# Results as given in US11976054B2, “Amide derivative and preparation method therefore and use thereof in medicine” (Chengdu Baiyu Pharmaceutical Co., Ltd., priority 2019, dated 2024).
# Key:
# [1] = system: Human monocyte cell line THP-1; experiment: Detection of THP-1 cell pyroptosis (Caspase-Glo 1 Inflammasome Assay); type: cell-based; conditions: 20 nM PMA 48 h, 1 μg/mL LPS, compound 3 h
# In short: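 Differentiated with 20 nM PMA for 48 h (50,000 cells/well), then given serum-free medium with 1 μg/mL LPS and compound in a 10-point, 3-fold series from 10 μM for 3 h at 37 °C. Caspase-1 activity read with Caspase-Glo 1 Inflammasome kit; IC50 calculated.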
# [2] = Pharmacokinetic analysis of compounds in rats; type: in vivo, SD rats; conditions: for F %: po 10 mg/kg vs iv 1 mg/kg
# Description: Healthy adult SD rats weighing 180-220 g were fasted (free access to water) overnight and divided into tail vein administration group and intragastric administration group. The tail vein administration group was subjected to blood collection of 0.1 mL from orbital venous plexus before the administration and 5 min, 15 min, 0.5 h, 1 h, 2 h, 4 h, 8 h, 12 h and 24 h after the administration, and plasma was separated out by centrifugation at 4° C. for 5 min and stored at −20° C. for test. The intragastric administration group was subjected to blood collection of 0.1 mL from orbital venous plexus before the administration and 5 min, 15 min, 0.5 h, 1 h, 2 h, 4 h, 8 h, 12 h and 24 h after the administration, and the subsequent treatment procedures were the same as those of the tail vein injection group. The concentration of parent drug in the plasma was determined by LC-MS/MS.
# [3] = system: IL-1β release in human PBMCs; experiment: Assay of IL-1β release in human PBMCs; type: cell-based; conditions: 10 ng/mL LPS 3 h, compound 0.5 h, 5 mM ATP 1 h, ELISA
# Description: 5 mL of human venous whole blood from a healthy donor was placed in a Li-heparin tube. PBMCs were isolated and incubated in a culture medium containing 10 ng/mL LPS at 37° C./5% CO2 for 3 h. Cells were plated in a 96-well plate at 50 μL per well. 25 μL of compound or solvent control was added to each well and 3-fold diluted in gradient from a maximum concentration of 10 μM, and 8 gradient concentrations were set. The mixtures were incubated for 0.5 h. 25 μL of ATP at a final concentration of 5 mM was added to each well, and the resulting mixtures were incubated for 1 h. After the incubation, the mixtures were centrifuged at 1500 rpm for 20 min, and the supernatant was collected to detect the expression level of […] by ELISA (BD, Human IL-1β ELISA Set II, Cat #557953). IC50 was calculated using GraphPad Prism7.0 software. The results are shown in Table 2, which indicate that: the compounds disclosed herein down-regulate release of mature IL-1β by inhibiting the activity of Caspase-1, and the IC50 is <50 nM.
# [4] = SD rats, iv (tail vein), 1 mg/kg, plasma
# [5] = SD rats, po (intragastric), 10 mg/kg, plasma
# [6] = Homo sapiens, THP-1, THP-1 pyroptosis
molecule,measurement,setting,value
"(RS, SC)- and (SS, SC)-N-((5-(1-cyclobutylethyl)-2,3-dihydro-1H-inden-4-yl)carbamoyl)-4-(2-hydroxypropan-2-yl)furan-2-sulfonimidamide [Compound 82-1]",IC50,[1]; THP-1 pyroptosis,100 to 500 nM
same,AUC,[2]; [4],2228 ng·h/mL
same,Cl,[2]; [4],11.2 mL/min/kg
same,Vss,[2]; [4],0.379 L/kg
same,t1/2,[2]; [4],0.70 h
same,F %,[2]; SD rats,74.0%
same,AUC,[2]; [5],16478 ng·h/mL
same,Cmax,[2]; [5],5883 ng/mL
same,t1/2,[2]; [5],2.3 h
same,IC50,[3],5.2 nM
"C[C@@H](c1ccc2c(c1NC(=O)NS(=N)(=O)c1cc(C(C)(C)O)co1)CC2)C1CC1 (mixture of isomers) [Compound 38-1, RS- and SS-N-((3-((R)-1-cyclopropylethyl)bicyclo[4.2.0]octa-1(6),2,4-trien-2-yl)carbamoyl)-4-(2-hydroxypropan-2-yl)furan-2-sulfonimidamide]",IC50,[1]; THP-1 pyroptosis,≤ 100 nM
same,AUC,[2]; [4],2112 ng·h/mL
same,Cl,[2]; [4],8.2 mL/min/kg
same,Vss,[2]; [4],0.679 L/kg
same,t1/2,[2]; [4],2.2 h
same,F %,[2]; SD rats,184%
same,AUC,[2]; [5],38823 ng·h/mL
same,Cmax,[2]; [5],13267 ng/mL
same,t1/2,[2]; [5],3.1 h
"C[C@H](c1cc(F)c2c(c1NC(=O)NS(=O)(=O)c1cc(C(C)(C)O)co1)CCC2)C1CC1 [Compound 43, (S)-N-((5-(1-cyclopropylethyl)-7-fluoro-2,3-dihydro-1H-inden-4-yl)carbamoyl)-4-(2-hydroxypropan-2-yl)furan-2-sulfonamide]",IC50,[1]; [6],500 to 1000 nM
same,IC50,[3]; PBMC,11.6 nM
"Cc1oc(S(=O)(=O)NC(=O)Nc2c([C@@H](C)C3CC3)ccc3c2CCC3)cc1C(C)(C)O [Compound 23, (S)-N-((5-(1-cyclopropylethyl)-2,3-dihydro-1H-inden-4-yl)carbamoyl)-4-(2-hydroxypropan-2-yl)-5-methylfuran-2-sulfonamide]",IC50,[1]; [6],100 to 500 nM
same,IC50,[3]; PBMC,5 nM
"CC(C)(O)c1coc(S(=N)(=O)NC(=O)Nc2c(CC3CCC3)ccc3c2CCC3)c1 (single isomer, unassigned) [Compound 18-1, RS- and SS-N-((5-(cyclobutylmethyl)-2,3-dihydro-1H-inden-4-yl)carbamoyl)-4-(2-hydroxypropan-2-yl)furan-2-sulfonimidamide]",IC50,[1]; THP-1 pyroptosis,500 to 1000 nM
same,AUC,"[2]; rat, in vivo, iv, 1 mg/kg",2226 ng·h/mL
same,Cl,"[2]; rat, in vivo, iv, 1 mg/kg",7.59 mL/min/kg
same,Vss,"[2]; rat, in vivo, iv, 1 mg/kg",0.845 L/kg
same,t1/2,"[2]; rat, in vivo, iv, 1 mg/kg",2.2 h
same,AUC,"[2]; rat, in vivo, po, 10 mg/kg",20153 ng·h/mL
same,Cmax,"[2]; rat, in vivo, po, 10 mg/kg",9867 ng/mL
same,t1/2,"[2]; rat, in vivo, po, 10 mg/kg",2.9 h
"C[C@@H](c1ccc2c(c1NC(=O)NS(=N)(=O)c1cc(C(C)(C)O)co1)CCC2)C1CC1 (mixture of isomers) [Compound 6-2, (RS, RC)- and (SS, RC)-N-((5-(-1-cyclopropylethyl)-2,3-dihydro-1H-inden-4-yl)carbamoyl)-4-(2-hydroxypropan-2-yl)furan-2-sulfonimidamide]",IC50,[1]; THP-1 pyroptosis,100 to 500 nM
same,AUC,[2]; [4],1657 ng·h/mL
same,Cl,[2]; [4],10.2 mL/min/kg
same,Vss,[2]; [4],0.781 L/kg
same,t1/2,[2]; [4],1.5 h
same,F %,[2]; SD rats,65.9%
same,AUC,[2]; [5],10920 ng·h/mL
same,Cmax,[2]; [5],4073 ng/mL
same,t1/2,[2]; [5],2.8 h
"CC(c1ccc2c(c1NC(=O)NS(=N)(=O)c1cc(C(C)(C)O)co1)CC2)C1CC1 (racemic) [Compound 36-1, (RS, SC)- and (SS, SC)-N-((3-(1-cyclopropylethyl)bicyclo[4.2.0]octa-1(6),2,4-trien-2-yl)carbamoyl)-4-(2-hydroxypropan-2-yl)furan-2-sulfonimidamide]",IC50,[1]; THP-1 pyroptosis,≤ 100 nM
same,AUC,[2]; [4],14614 ng·h/mL
same,Cl,[2]; [4],1.3 mL/min/kg
same,Vss,[2]; [4],0.22 L/kg
same,t1/2,[2]; [4],3.9 h
same,F %,[2]; SD rats,98.5%
same,AUC,[2]; [5],143938 ng·h/mL
same,Cmax,[2]; [5],33467 ng/mL
same,t1/2,[2]; [5],2.9 h
"CC(c1ccc2c(c1NC(=O)NS(=N)(=O)c1cc(C(C)(C)O)co1)CCC2)C1CC1 (racemic) [Compound 8-2, (RS, SC)- and (SS, SC)-N-((5-(1-cyclopropylethyl)-2,3-dihydro-1H-inden-4-yl)carbamoyl)-4-(2-hydroxypropan-2-yl)furan-2-sulfonimidamide]",IC50,[1]; THP-1 pyroptosis,500 to 1000 nM
same,AUC,[2]; [4],2170 ng·h/mL
same,Cl,[2]; [4],7.8 mL/min/kg
same,Vss,[2]; [4],0.656 L/kg
same,t1/2,[2]; [4],2.0 h
same,F %,[2]; SD rats,66.7%
same,AUC,[2]; [5],14484 ng·h/mL
same,Cmax,[2]; [5],6190 ng/mL
same,t1/2,[2]; [5],3.4 h
"Cc1oc(S(=N)(=O)NC(=O)Nc2c(C(C)C3CC3)ccc3c2CCC3)cc1C(C)(C)O (single isomer, unassigned) [Compound 24-2, RS- and SS-N-((5-(1-cyclopropylethyl)-2,3-dihydro-1H-inden-4-yl)carbamoyl)-4-(2-hydroxypropan-2-yl)-5-methylfuran-2-sulfonimidamide]",IC50,[1]; THP-1 pyroptosis,≤ 100 nM
same,IC50,[3],17.4 nM
"C[C@@H](c1ccc2c(c1NC(=O)NS(=N)(=O)c1cc(C(C)(C)O)co1)CCC2)C1CCC1 (mixture of isomers) [Compound 80-2, (RS)- and (SS)-N-((5-((R)-1-cyclobutylethyl)-2,3-dihydro-1H-inden-4-yl)carbamoyl)-4-(2-hydroxypropan-2-yl)furan-2-sulfonimidamide]",IC50,[1]; THP-1 pyroptosis,≤ 100 nM
same,IC50,[3],14.8 nM
"CC(c1cc(F)c2c(c1NC(=O)NS(=O)(=O)c1cc(C(C)(C)O)co1)CCC2)C1CC1 (stereo not shown) [Compound 9, N-((5-(1-cyclopropylethyl)-7-fluoro-2,3-dihydro-1H-inden-4-yl)carbamoyl)-4-(2-hydroxypropan-2-yl)furan-2-sulfonamide]",IC50,[3]; PBMC,25.6 nM
"C[C@@H](c1cc(F)c2c(c1NC(=O)NS(=O)(=O)c1cc(C(C)(C)O)co1)CCC2)C1CC1 [Compound 41, (R)-N-((5-(1-cyclopropylethyl)-7-fluoro-2,3-dihydro-1H-inden-4-yl)carbamoyl)-4-(2-hydroxypropan-2-yl)furan-2-sulfonamide]",IC50,[1]; [6],≤ 100 nM
same,IC50,[3]; PBMC,5 nM
"C[C@@H](c1cc(F)c2c(c1NC(=O)N[S@@](=N)(=O)c1cc(C(C)(C)O)co1)CCC2)C1CC1 (mixture of isomers) [Compound 42-1, (R)- and (S)-N-((5-((R)-1-cyclopropylethyl)-7-fluoro-2,3-dihydro-1H-inden-4-yl)carbamoyl)-4-(2-hydroxypropan-2-yl)furan-2-sulfonimidamide]",IC50,[1]; [6],100 to 500 nM
same,IC50,[3]; PBMC,18.5 nM
"C[C@@H](c1ccc2c(c1NC(=O)NS(=O)(=O)c1cnc(C(C)(C)O)s1)CCC2)C1CC1 [Compound 87, (R)-N-((5-(1-cyclopropylethyl)-2,3-dihydro-1H-inden-4-yl)carbamoyl)-2-(2-hydroxypropan-2-yl)thiazole-5-sulfonamide]",IC50,[1]; [6],≤ 100 nM
same,IC50,[3]; PBMC,40.4 nM
"RS- and SS-N-((5-(cyclobutylmethyl)-2,3-dihydro-1H-inden-4-yl-7-d)carbamoyl)-4-(2-hydroxypropan-2-yl)furan-2-sulfonimidamide [Compound 39-1]",IC50,[1]; THP-1 pyroptosis,≤ 100 nM
same,IC50,[3],31.7 nM
"[2H]c1cc([C@H](C)C2CC2)c(NC(=O)NS(=O)(=O)c2cc(C(C)(C)O)co2)c2c1CCC2 [Compound 29, (R)-N-((5-(1-cyclopropylethyl)-2,3-dihydro-1H-inden-4-yl-7-d)carbamoyl)-4-(2-hydroxypropan-2-yl)furan-2-sulfonamide]",IC50,[1]; [6],100 to 500 nM
same,IC50,[3]; PBMC,18.5 nM
"[2H]c1cc([C@@H](C)C2CC2)c(NC(=O)NS(=N)(=O)c2cc(C(C)(C)O)co2)c2c1CCC2 (single isomer, unassigned) [Compound 32-2, (RS, SC)- and (SS, SC)-N-((5-(1-cyclopropylethyl)-2,3-dihydro-1H-inden-4-yl-7-d)carbamoyl)-4-(2-hydroxypropan-2-yl)furan-2-sulfonimidamide]",IC50,[1]; THP-1 pyroptosis,≤ 100 nM
same,IC50,[3]; PBMC,28.9 nM
"C[C@H](c1ccc2c(c1NC(=O)NS(=O)(=O)c1cc(C(C)(C)O)co1)CCC2)C1CC1 [Compound 7, (S)-N-((5-(1-cyclopropylethyl)-2,3-dihydro-1H-inden-4-yl)carbamoyl)-4-(2-hydroxypropan-2-yl)furan-2-sulfonamide]",IC50,[1]; [6],≤ 100 nM
same,IC50,[3]; PBMC,41.1 nM
"(RS, RC)- and (SS, RC)-N-((5-(1-cyclopropylethyl)-2,3-dihydro-1H-inden-4-yl-7-d)carbamoyl)-4-(2-hydroxypropan-2-yl)furan-2-sulfonimidamide [Compound 31-2]",IC50,[1]; THP-1 pyroptosis,≤ 100 nM
same,IC50,[3],25 nM
